Reference: patent US20220257552A1, “METHODS OF PRESCREENING AND TREATING BREAST CANCERS WITH SELECTIVE ANDROGEN RECEPTOR MODULATORS” (priority 2021, published 2022)

How the values were obtained:
[1] = tested on: MDA-MB-231 triple negative breast cancer cells; assay: SRB cell viability, MDA-MB-231 cells infected with AR adenovirus; assay type: cell-based
Method: The SRB assay was used to determine cell number during cytotoxocity experiments. The following protocol was used: • 1. Cells were detached with 0.25% trypsin. • 2. Experimental cultures were cultured in 96-well microtiter plates (200 μL growth medium per well; 1,000-200,000 cells per well). • 3. Cultures were fixed with 50 μL 50% TCA (4° C.). (see cell fixation protocol for details). • 4. Fixed cells were stained with 50 μL 0.4% (wt/vol) SRB in 1% acetic acid for 10 minutes. • 5. SRB was removed and the cultures were quickly* rinsed 5 times with 1% acetic acid to remove unbound dye.** • 6. Cultures were air-dried overnight until there was no visible moisture. • 7. The cellular protein-bound SRB was dissolved with 200 μL unbuffered Tris base (10 mM, pH 10.5) for 30 minutes on a rocking platform shaker. • 8. Absorbance was read at 540 nm. * quickly performing rinsing process was to prevent desorption of protein-bound SRB ** completely removed residual wash solution by sharply flicking plates over sink.
The following protocol was used for fixing cells: • a. 50 μL of 50% TCA (4° C.) was gently layered on the top of growth medium in each well to make a final TCA concentration of 10%. • b. Cultures were incubated at 4° C. for 1 hour. • c. Cultures were washed 5 times with tap water to remove TCA, growth medium, low-molecular-weight metabolites, and serum protein. • d. Plates were air-dried until there was no visible moisture.
Cells were treated in charcoal stripped FBS (FIGS. 4A, 4C, 4E, 4G, 4I, 4K, 4M and 4O) or full serum (FIGS. 4B, 4D, 4F, 4H, 4J, 4L, 4N and 4P) for 3 days, fixed and stained with […] (SRB) to measure cell viability. Anti-proliferative IC50 values were calculated in breast cancer cells and compared to transactivation values, i.e., EC50 (agonists) and IC50 (antagonists) values, generated in HEK-293 cells.

[2] = tested on: BR-0001 TNBC; assay: BR-0001 AR-positive TNBC xenograft in NSG mice; assay type: in vivo
Method: Xenograft experiment. NSG mice obtained from JAX labs were housed with five animals per cage and were allowed free access to tap water and commercial rat chow (Harlan Teklad 22/5 rodent diet—8640). During the course of the study, the animals were maintained on a 12 hr light:dark cycle. Animals were anesthetized and BR-0001 TNBC fragments of 1 mm^3 (approximately) were implanted subcutaneously in NSG mice. […] Tumor volume was measured thrice weekly. Tumor volume was calculated using the formula length×width×width×0.5236. Once tumors reached greater than 1500-2000 mm^3, animals were sacrificed and tumors weighted and stored for various analysis. Two regions of the same BR-0001 tumor, an AR-positive TNBC xenograft, were immunohistochemically stained with AR antibody (AR N20 from SCBT) (FIGS. 26A and 26B) and compared to an AR-negative (FIG. 26C) TNBC as a negative control. […] The tumor xenograft efficacy experimental results are provided in 27A-27C, with FIGS. 27A and 27B being replicate experiments.
Tumors from replicate experiment 2 (FIG. 27B) were fixed in formalin and paraffin embedded. Slides were cut and stained with Ki-67 antibody. Ki-67 positive cells (total 200 cells were counted in each slide) in each slide were counted and represented as % stained cells, as shown in FIG. 28B.

[3] = Phase 1 multiple ascending dose study G100402; assay type: in vivo, human
Excerpt: These include: 1. Protocol G100401, a Phase 1 single ascending dose study in 96 healthy, young, male volunteers; 2. Protocol G100402, a Phase 1 multiple ascending dose study in 50 healthy, young, male volunteers, and 23 elderly male volunteers with truncal obesity; 3. Protocol G100503, a Phase 1 single dose pharmacokinetic study to assess the effect of a dosage regimen that simulates a sustained release formulation to an immediate release formulation in 18 healthy, young male volunteers and 18 postmenopausal women; 4. Protocol G100506, a Phase 1 single dose pharmacokinetic study to assess the relative bioavailability of a 3 mg hard shell capsule formulation to be used during continued clinical development and to assess the effect of food on the pharmacokinetics of the 3 mg softgel formulation in 27 healthy, young, male volunteers; 5. Protocol 006, a Phase 1 single dose and multiple dose pharmacokinetic study in 24 postmenopausal, Japanese women; 6. Protocol G200501, a Phase 2 study in 60 postmenopausal women and 60 elderly men to assess lean body mass and physical function; 7. Protocol 003, a Phase 1b study in 44 postmenopausal women; 8. Protocol G200502, a Phase 2b study in 159 men and postmenopausal women with cancer to assess lean body mass and physical function; 9.
Both 10 mg and 30 mg daily doses were evaluated in Protocol G100402 for up to 14 days. […]

[4] = tested on: breast cancer specimens obtained from patients; assay: Breast cancer patient specimens, ex vivo sponge culture; assay type: cell-based, human
Method: Specimens from breast cancer patients were collected with patient consent under a protocol approved by the UTHSC Institutional Review Board (IRB). Specimens were collected immediately after surgery in RPMI medium containing penicillin:streptomycin and Fungizone and transported to the laboratory on ice. The tissues were finely minced and treated with collagenase for 2 hours.
HCI-13 tumors grown in female mice were allowed to reach 500-1000 mm^3 before the animals were sacrificed and the tumors were excised to be used for sponge culture. Patient specimens frozen in liquid nitrogen in freezing medium were used for sponge culture. […] Tumors were sliced into small pieces (˜1 mm^3) and incubated on pre-soaked gelatin sponges (5 fragments/sponge) in 12 well plates containing 1.5 mL medium (MEM+10% FBS+2 mM L-glutamine+10 μg/mL insulin+10 μg/mL hydrocortisone+penicillin:streptomycin). The cultures were performed in triplicates for HCI-13 and singly for patient specimens. Pooled samples (n=5/sponge) from each sponge constituted one sample. Tissues were harvested after 3 days of treatment, RNA extracted, and expression of various genes measured. Although the same procedure was adopted for specimens obtained from breast cancer patients, the specimens were cultured singly (n=5/sponge=one sample) and not in triplicates as performed for HCI-13.
Like other cancers, breast cancer is also heterogeneous in its genomic profile as well as in its response to treatments. […] Three days after treatment, RNA was isolated from the tissues and expression of ER- and AR-target genes was measured.

[5] = tested on: MCF-7-AR tumors; assay: Phospho MAPK array of MCF-7-AR tumors; parameters: species or system mice; conditions: mouse, in vivo
Method: Protein from MCF-7-AR tumors that were treated with vehicle or compound of Formula VIII were extracted and incubated with phospho MAPK array to determine the effect of compound of Formula VIII on phosphorylation of various kinases.

Q: Which “growth inhibitory effects in the presence of bicalutamide” value ([1]; AR-positive cells, 10 μM bicalutamide) does the source give for `C[C@](O)(COc1ccc(C#N)cc1)C(=O)Nc1ccc(C#N)c(C(F)(F)F)c1` [Formula IX, (S)—N-(4-Cyano-3-(trifluoromethyl)phenyl)-3-(4-cyanophenoxy)-2-hydroxy-2-methylpropanamide] here?
A: weakened growth inhibitory effects

Q: And the cell growth ([1]; cells with AR, 3 days, SRB)?
A: inhibited

Q: What about the tumor growth ([2]; 10 mg/kg/day Formula IX or enzalutamide orally) of the same compound?
A: some tumor growth inhibition

Q: What about the tumor weight reduction ([2]; experiment 2) of the same compound?
A: ~40%

Q: What about the “subjects with ALT increases above two times the ULN” value ([3]; 30 mg dose group) of the same compound?
A: six

Q: What about the tolerability ([3]; daily doses up to 30 mg, healthy male volunteers) of the same compound?
A: well tolerated

Q: What about the “specimens in which AR agonist activity was observed” value ([4]; 1 μM) of the same compound?
A: 4 of 8

Q: And the “specimens in which ER function was inhibited” value ([4]; 1 μM Formula IX, 100 nM fulvestrant, 3 days)?
A: 3 of 8

Q: With `C[C@](O)(COc1ccc(C#N)cc1)C(=O)Nc1ccc(C#N)c(Cl)c1` [Formula VIII, (S)—N-(3-chloro-4-cyanophenyl)-3-(4-cyanophenoxy)-2-hydroxy-2-methylpropanamide] as the compound, how does the JNK phosphorylation [5] read?
A: upregulated
